One experiment has as its system Aβ1-42. Set-up: method as in PMID 10882355. The settings on record: read-out: Reported IC50 (Aβ1-42); cited from earlier work.
In a further experiment the target is T1, human γ-secretase (Homo sapiens, UniProt P49768).
T1 construct: endogenously expressing human γ-secretase from HEK293T cell membrane; endogenous in cells; host or cells: HEK293T cells (membrane fraction, solubilised with 0.25% CHAPSO)
The experiment in a line: Fluorogenic substrate assay with endogenous human γ-secretase from HEK293T cell membrane. The settings on record: for IC50: 10 μg membrane protein, 6 μM substrate, 5 h, 37 °C, mean ± SEM; for maximal inhibition: human γ-secretase, relative to 1 μM L685,458 = 100%. The experiment is classed as biochemical. As to the method:
All procedures were carried out at 4 °C. […] Mouse cortex was homogenized with 15 stokes of pestle A in the same lysis buffer. The homogenates were centrifuged at 800 g for 10 min to remove nuclei and large debris. The supernatants were centrifuged at 25,000 g for 1 h at 4 °C and the membrane pellets were resuspended in reaction buffer containing 50 mM Tris-HCl (pH 6.8), 2 mM EDTA, 150 mM KCl and Complete^TM protease inhibitor cocktail.
For assay optimization, aliquots of membrane protein (5~30 μg) was added to each well of a 96-well plate with various concentrations of fluorogenic substrate (4~8 μM). Different concentrations of compounds were added and the final reaction system was adjusted to 100 μL/well with the reaction buffer. The plate was incubated at 37 °C in a humidified atmosphere for indicated time periods. Fluorescence was measured using a BIOTEK FLX800 microplate reader with the excitation wavelength at 355 nm and the emission wavelength at 440 nm. The activity of γ-secretase was presented as the relative fluorescent unit (RFU). For compound screening, 1 μM of L685,458 was used as a positive control, and 1% DMSO was used as negative control.
(§1) Data were analyzed with GraphPad Prism software (GraphPad, San Diego, CA, USA). Non-linear regression analyses were performed to generate dose-response curves and calculate IC50 values, and linear regression was used to analyze data reproducibility. Mean ± SEM was calculated automatically with this software. Z’ factor was calculated by the following equation: Z’ = 1 - (3SD++3SD-) / │Ave+ - Ave-│ in which SD+ is the standard deviation of positive control, SD-is the standard deviation of negative control, Ave+ is the mean value of the positive control, and Ave-is the mean value of the negative control.

For experiment [1], the target named is γ-secretase (Aβ40, Aβ42). More on the design: method as in PMID 15341524. The settings on record: Aβ ELISA assay, cited from earlier work.
The target in a further experiment is mouse γ-secretase. The experiment in a line: Fluorogenic substrate assay with mouse γ-secretase from mouse cortex membrane. The experiment is classed as biochemical. The settings on record: mean ± SEM, n = 3. As to the method:
All procedures were carried out at 4 °C. HEK 293T or S2 cells were washed with ice-cold PBS by centrifugation at 500 g for 5 min and the pellets were homogenized with a Dounce homogenizer (pestle B, 15 strokes) in lysis buffer contained 5 mM Tris-HCl (pH 7.4), 5 mM EDTA, 5 mM EGTA and Complete^TM protease inhibitor cocktail. Mouse cortex was homogenized with 15 stokes of pestle A in the same lysis buffer. The homogenates were centrifuged at 800 g for 10 min to remove nuclei and large debris. The supernatants were centrifuged at 25,000 g for 1 h at 4 °C and the membrane pellets were resuspended in reaction buffer containing 50 mM Tris-HCl (pH 6.8), 2 mM EDTA, 150 mM KCl and Complete^TM protease inhibitor cocktail. After measuring the protein concentration, the membranes were diluted to 1 mg/ml in 50 mM Tris-HCl, pH 6.8, 2 mM EDTA, 150 mM KCl, 0.25% CHAPSO.
For assay optimization, aliquots of membrane protein (5~30 μg) was added to each well of a 96-well plate with various concentrations of fluorogenic substrate (4~8 μM). Different concentrations of compounds were added and the final reaction system was adjusted to 100 μL/well with the reaction buffer. The plate was incubated at 37 °C in a humidified atmosphere for indicated time periods. Fluorescence was measured using a BIOTEK FLX800 microplate reader with the excitation wavelength at 355 nm and the emission wavelength at 440 nm. The activity of γ-secretase was presented as the relative fluorescent unit (RFU). For compound screening, 1 μM of L685,458 was used as a positive control, and 1% DMSO was used as negative control. The inhibition rate of each compound was calculated with the following equation: InhibitionCompound % = (Average Value1%DMSO-Average Value Compound)/(Average Value1%DMSO-Average ValueL685,458) × 100%. So the inhibition rate of 1 μM L685,458 is 100% and that of 1% DMSO is 0. The samples showing more than 60% inhibition were considered as “hits” in the screening.
as §1

The target of another experiment is T2, drosophila γ-secretase (Drosophila melanogaster, UniProt O02194).
T2 construct: membrane containing drosophila or mouse γ-secretase was isolated from S2 cells or mouse cortex, respectively; host or cells: Drosophila Schneider 2 (S2) cells, membrane fraction
T2 sequence (O02194 whole entry): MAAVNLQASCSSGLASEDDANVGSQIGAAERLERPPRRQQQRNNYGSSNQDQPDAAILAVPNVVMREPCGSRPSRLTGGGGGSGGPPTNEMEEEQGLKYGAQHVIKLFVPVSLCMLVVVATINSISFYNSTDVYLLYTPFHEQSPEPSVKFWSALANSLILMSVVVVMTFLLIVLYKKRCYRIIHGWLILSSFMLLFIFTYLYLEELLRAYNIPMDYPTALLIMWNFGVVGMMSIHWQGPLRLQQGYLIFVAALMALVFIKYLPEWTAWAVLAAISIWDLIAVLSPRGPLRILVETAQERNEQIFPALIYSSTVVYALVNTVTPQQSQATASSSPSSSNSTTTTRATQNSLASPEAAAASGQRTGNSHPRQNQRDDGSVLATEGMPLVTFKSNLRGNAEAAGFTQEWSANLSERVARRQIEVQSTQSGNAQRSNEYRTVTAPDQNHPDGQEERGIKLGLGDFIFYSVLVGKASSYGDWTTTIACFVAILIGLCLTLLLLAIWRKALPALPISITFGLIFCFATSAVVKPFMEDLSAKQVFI
T2 sequence (Q9VC27 23-695 partner): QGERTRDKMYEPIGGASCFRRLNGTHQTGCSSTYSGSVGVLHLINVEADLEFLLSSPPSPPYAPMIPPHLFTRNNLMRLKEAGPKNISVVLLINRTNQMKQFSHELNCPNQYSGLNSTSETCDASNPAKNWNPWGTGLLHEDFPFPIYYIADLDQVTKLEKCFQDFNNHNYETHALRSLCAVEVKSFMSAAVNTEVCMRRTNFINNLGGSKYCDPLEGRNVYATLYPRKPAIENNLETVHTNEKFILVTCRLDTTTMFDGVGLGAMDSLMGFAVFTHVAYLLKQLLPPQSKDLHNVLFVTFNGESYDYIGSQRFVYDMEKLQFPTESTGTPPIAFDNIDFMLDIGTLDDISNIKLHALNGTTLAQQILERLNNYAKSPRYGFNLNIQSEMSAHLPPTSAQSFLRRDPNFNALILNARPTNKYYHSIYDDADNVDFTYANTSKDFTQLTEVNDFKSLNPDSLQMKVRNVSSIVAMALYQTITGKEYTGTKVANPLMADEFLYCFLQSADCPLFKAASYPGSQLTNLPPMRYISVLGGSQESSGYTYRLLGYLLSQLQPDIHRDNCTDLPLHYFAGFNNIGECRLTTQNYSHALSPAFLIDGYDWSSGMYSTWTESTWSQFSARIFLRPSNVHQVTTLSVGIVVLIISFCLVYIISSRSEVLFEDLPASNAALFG
T2 sequence (Q9VQG2 whole entry partner): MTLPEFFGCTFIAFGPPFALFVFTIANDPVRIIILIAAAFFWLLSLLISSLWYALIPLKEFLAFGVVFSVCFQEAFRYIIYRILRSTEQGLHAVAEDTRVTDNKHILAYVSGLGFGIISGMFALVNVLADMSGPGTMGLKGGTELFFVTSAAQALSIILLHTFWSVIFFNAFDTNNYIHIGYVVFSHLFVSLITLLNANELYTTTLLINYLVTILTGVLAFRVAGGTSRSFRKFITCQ
T2 sequence (Q86BE9 whole entry partner): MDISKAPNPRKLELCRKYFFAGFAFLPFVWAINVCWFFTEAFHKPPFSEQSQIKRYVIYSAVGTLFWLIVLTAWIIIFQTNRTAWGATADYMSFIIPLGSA
Description: Fluorogenic substrate assay with drosophila γ-secretase from S2 cell membrane. In kind it is biochemical.

In the next experiment the target is γ-secretase (Aβ). Conditions: In vivo γ-secretase assay; read-out: Reported IC50 (Aβ); cited from earlier work.
Experiment [2] concerns the target γ-secretase (Aβ40, Aβ42). More on the design: method as in PMID 11574530. The settings on record: immunoblotting assay, cited from earlier work.
The target of experiment [3] is γ-secretase. More on the design: method as in PMID 16569643. Conditions: in vitro γ-secretase assay; read-out: Reported IC50; cited from earlier work.
For experiment [4], the target named is γ-secretase. Set-up: method as in PMID 10913280. Conditions: HTRF assay; read-out: Reported IC50; cited from earlier work. (In TR-FRET formats the signal depends on donor and acceptor labels being close together.)
For a further experiment, the system named is Sup-T1 NICT. Set-up: method as in PMID 15319485. Conditions: Sup-T1 NICT assay; read-out: Reported IC50; cited from earlier work.
Setting [5] is: S2 cell membrane, mean ± SEM, n = 3, read-out: drosophila γ-secretase IC50.

Read-outs that look alike come from different tables or passages of the source.

On to `CC12CCC(C1)C(C)(C)C2NS(=O)(=O)c1ccc(F)cc1` (stereo not drawn) [Inhibitor VI], for which the IC50 in the experiment with Aβ1-42 was 1800 nM. For the same compound, on human γ-secretase, it took 44500 ± 25600 nM to reach half-maximal inhibition (IC50) and the maximal inhibition was 67.3%.
Turning to `C[C@H](NC(=O)Cc1cc(F)cc(F)c1)C(=O)N[C@H](C(=O)OC(C)(C)C)c1ccccc1` [DAPT, N-[N-(3,5-difluorophenacetyl)-L-alanyl]-S-phenylglycine t-butyl ester], the IC50 is 3910 ± 551 nM against human γ-secretase; 1600 nM on γ-secretase (Aβ40, Aβ42) [1] (read-out: Reported IC50 (Aβ40)); 4000 nM at γ-secretase (Aβ40, Aβ42) [1] (read-out: Reported IC50 (Aβ42)). For the same compound, the maximal inhibition at human γ-secretase stood at 69.7%.
For the compound `COC(=O)[C@@H](NC(=O)[C@H](CC(C)C)NC(=O)N(Cc1ccccc1)C[C@@H](O)[C@H](Cc1ccccc1)NC(=O)OC(C)(C)C)C(C)C` [31C], the IC50 on mouse γ-secretase was 20.7 ± 5.24 nM; at drosophila γ-secretase (setting [5]), 0.933 ± 0.169 nM; against human γ-secretase it was 53.5 ± 13.6 nM; on γ-secretase (Aβ), 300 nM. Moreover, at human γ-secretase, the maximal inhibition stood at 103.1%.
Regarding `C[C@H](NC(=O)Cc1cc(F)cc(F)c1)C(=O)N[C@H]1N=C(c2ccccc2)c2ccccc2N(C)C1=O` [Compound E], the IC50 at γ-secretase (Aβ40, Aβ42) [2] (read-out: Reported IC50 (Aβ40)) is 0.24 nM; at γ-secretase (Aβ40, Aβ42) [2] (read-out: Reported IC50 (Aβ42)), 0.37 nM; against mouse γ-secretase, 2.4 ± 0.605 nM; at drosophila γ-secretase, 40.5 ± 7 nM; against human γ-secretase it was 53.9 ± 5.31 nM; at γ-secretase [3] it was 7 nM. Moreover, the IC50 was 0.8 nM at γ-secretase (Aβ40, Aβ42) [1] (read-out: Reported IC50 (Aβ40)) and 7 nM on γ-secretase (Aβ40, Aβ42) [1] (read-out: Reported IC50 (Aβ42)). Besides, the maximal inhibition at human γ-secretase turned out to be 92.3%.
On to `CC(C)C[C@H](NC(=O)[C@H](Cc1ccccc1)C[C@@H](O)[C@H](Cc1ccccc1)NC(=O)OC(C)(C)C)C(=O)N[C@@H](Cc1ccccc1)C(N)=O` [L685,458], for which the IC50 at γ-secretase (Aβ40, Aβ42) [2] (read-out: Reported IC50 (Aβ40)) is 4 nM; on γ-secretase (Aβ40, Aβ42) [2] (read-out: Reported IC50 (Aβ42)), 8 nM; on mouse γ-secretase it was 0.976 ± 0.147 nM; at drosophila γ-secretase (setting [5]) it was 10.3 ± 1.66 nM; at human γ-secretase, 4.43 ± 0.969 nM; at γ-secretase [3] it was 3 nM. Besides, the IC50 on γ-secretase [4] was 17 nM.
As for `C[C@H](NC(=O)Cc1cc(F)cc(F)c1)C(=O)N[C@@H]1C(=O)N(C)c2ccccc2-c2ccccc21` [DBZ], the IC50 was 1.7 nM in the experiment with Sup-T1 NICT, 1.45 ± 0.435 nM against mouse γ-secretase, 6.97 ± 1.98 nM at drosophila γ-secretase (setting [5]) and 12.5 ± 5.76 nM against human γ-secretase. The maximal inhibition at human γ-secretase was 95.2%.

A word on the IC50: it is the concentration that inhibits the measured activity by half.

Values taken from article PMC6254802, “Development of a High-Throughput Assay for Screening of γ-Secretase Inhibitor with Endogenous Human, Mouse or Drosophila γ-Secretase” (Molecules, 2009).
